Laboratory results published in the NIST ThermoML archive (doi:10.1016/j.jct.2009.05.005).
Numbers after ± are expanded uncertainties.

Test: xn = mol fraction of the nth substance listed
Conditions: 298.15 K, 101 kPa, Liquid, Vibrating tube method

CC1(C)[C@H]2CC[C@]1(CS(=O)(=O)O)C(=O)C2 [(1R)-(-)-10-camphorsulfonic acid] + CCO showed a mass density (x1 = 0.001067) of 787.036 ± 0.15 kg/m3, a mass density (x1 = 0.001496) of 787.969 ± 0.15 kg/m3 and a mass density (x1 = 0.002271) of 789.366 ± 0.15 kg/m3.
With CC1(C)[C@H]2CC[C@]1(CS(=O)(=O)Cl)C(=O)C2 [(1R)-(-)-10-camphorsulfonyl chloride] + CCO the mass density (x1 = 0.0006848) was 786.329 ± 0.15 kg/m3, the mass density (x1 = 0.001385) was 787.654 ± 0.15 kg/m3 and the mass density (x1 = 0.002039) was 788.885 ± 0.15 kg/m3.
CC1(C)[C@H]2CC[C@]1(C)C(=O)C2 [(1S)-1,7,7-trimethylbicyclo[2.2.1]heptan-2-one] + CCO showed a mass density (x1 = 0.001613) of 786.229 ± 0.15 kg/m3, a mass density (x1 = 0.003055) of 786.828 ± 0.15 kg/m3 and a mass density (x1 = 0.009161) of 788.869 ± 0.15 kg/m3. The mass density (x1 = 0.01574) was 789.42 ± 0.15 kg/m3.
CC1(C)[C@@H]2CC[C@@]1(CS(N)(=O)=O)C(=O)C2 [(1S)-(+)-10-camphorsulfonamide] + CCO showed a mass density (x1 = 9.665e-05) of 785.188 ± 0.15 kg/m3, a mass density (x1 = 0.001502) of 787.624 ± 0.15 kg/m3 and a mass density (x1 = 0.002013) of 788.405 ± 0.15 kg/m3.
With CC1(C)[C@@H]2CC[C@@]1(CS(=O)(=O)O)C(=O)C2 [(1S)-(+)-10-camphorsulfonic acid] + CCO the mass density (x1 = 0.001067) was 787.039 ± 0.15 kg/m3, the mass density (x1 = 0.001496) was 787.971 ± 0.15 kg/m3 and the mass density (x1 = 0.002271) was 789.368 ± 0.15 kg/m3.
With CC1(C)[C@H]2CC[C@]1(C)C(=O)C2=O [(+)-camphorquinone] + CCO the mass density (x1 = 0.001389) was 786.234 ± 0.15 kg/m3, the mass density (x1 = 0.00209) was 786.827 ± 0.15 kg/m3 and the mass density (x1 = 0.002792) was 787.377 ± 0.15 kg/m3.
For CC1(C)[C@@H]2CC[C@@]1(C)C(=O)C2=O [(-)-camphorquinone] + CCO, the mass density (x1 = 0.001389) was 786.235 ± 0.15 kg/m3, the mass density (x1 = 0.00209) was 786.827 ± 0.15 kg/m3 and the mass density (x1 = 0.002792) was 787.379 ± 0.15 kg/m3.
CC1(C)C2CCC1(CS(=O)(=O)Cl)C(=O)C2 (stereo not drawn) [d-10-camphorsulfonyl chloride] + CCO gave a mass density (x1 = 0.0006848) of 786.327 ± 0.15 kg/m3, a mass density (x1 = 0.001385) of 787.552 ± 0.15 kg/m3 and a mass density (x1 = 0.002039) of 788.887 ± 0.15 kg/m3.
Work on CC1(C)[C@@H]2CC[C@@]1(C)C(=O)C2 [d-camphor] + CCO yielded a mass density (x1 = 0.001613) of 786.229 ± 0.15 kg/m3, a mass density (x1 = 0.003055) of 786.827 ± 0.15 kg/m3 and a mass density (x1 = 0.009161) of 788.887 ± 0.15 kg/m3. It also gave a mass density (x1 = 0.01574) of 789.421 ± 0.15 kg/m3.
Work on CCO [ethanol] + CC1(C)C2CCC1(CS(=O)(=O)Cl)C(=O)C2 yielded a mass density (x2 = 0) of 785.033 ± 0.15 kg/m3.
With CCO [ethanol] + CC1(C)[C@@H]2CC[C@@]1(C)C(=O)C2 the mass density (x2 = 0) was 785.055 ± 0.15 kg/m3.
CCO [ethanol] + CC1(C)[C@@H]2CC[C@@]1(C)C(=O)C2=O gave a mass density (x2 = 0) of 785.025 ± 0.15 kg/m3.
CCO [ethanol] + CC1(C)[C@@H]2CC[C@@]1(CS(=O)(=O)O)C(=O)C2 gave a mass density (x2 = 0) of 785.026 ± 0.15 kg/m3.
With CCO [ethanol] + CC1(C)[C@@H]2CC[C@@]1(CS(N)(=O)=O)C(=O)C2 the mass density (x2 = 0) was 785.013 ± 0.15 kg/m3.
Molecule CCO [ethanol] + CC1(C)[C@H]2CC[C@]1(C)C(=O)C2 has a mass density (x2 = 0) of 785.056 ± 0.15 kg/m3.
For CCO [ethanol] + CC1(C)[C@H]2CC[C@]1(C)C(=O)C2=O, the mass density (x2 = 0) was 785.022 ± 0.15 kg/m3.
For CCO [ethanol] + CC1(C)[C@H]2CC[C@]1(CS(=O)(=O)Cl)C(=O)C2, the mass density (x2 = 0) was 785.035 ± 0.15 kg/m3.
Work on CCO [ethanol] + CC1(C)[C@H]2CC[C@]1(CS(=O)(=O)O)C(=O)C2 yielded a mass density (x2 = 0) of 785.024 ± 0.15 kg/m3.
